# Test system: SH-SY5Y M-currents (KCNQ2, KCNQ3 and KCNQ5)
# Test: SH-SY5Y native cell line FLIPR assay (voltage-sensitive dye DiBAC)
# Assay type: cell-based, mouse neuroblastoma, rat glioma hybrid cell line
# Conditions: FLIPR assay, SH-SY5Y native cell line; Table 1; read-out: SH-SY5Y EC50
# Source text: SH-SY5Y cells, a mouse neuroblastoma, rat glioma hybrid cell line, functionally express M-currents (Robbins et al., J. Physiol. 451: 159-85 (1992). SH-SY5Y M-currents are likely comprised, at least in part, of KCNQ2, KCNQ3 and KCNQ5, since these genes are reportedly robustly expressed in differentiated SH-SY5Y cells (Selyanko et al., J. Neurosci. 19(18): 7742-56 (1999); Schroeder et al., J. Biol. Chem. 275(31): 24089-95 (2000)) and KCNQ3 dominant-negative constructs reduce M-current density in these cells (Selyanko et al., J. Neurosci. 22(5): RC212 (2002).
# SH-SY5Y were maintained in DMEM (high glucose) supplemented with 10% fetal bovine serum, 0.05 mM pyridoxine, 0.1 mM hypoxanthine, 400 nM aminopterin, […], 50 μgml^−1 gentamycin and 10 mM HEPES, in an incubator at 37° C. with a humidified atmosphere of 5% CO2. Cells were plated in 96 well plates differentiated by addition of 10 μM PGE1 and 50 μM isomethylbutylxanthine to the growth media prior to study.
# Differentiated SH-SY5Y cells were loaded with voltage-sensitive dye by incubation in Earls Balanced Salt Solution (EBSS) containing […] DiBAC for 1 h. Following loading, drug solution containing […] DiBAC was added to each well. Changes in fluorescence were measured every 30 s for 25 min. The maximum change in fluorescence was measured and expressed as a percentage of the maximum response obtained in the presence of a positive control agent.
row,EC50,Compound
1,< 0.5 µM,"CC(C)(C)Cc1c(NC(=O)CC2CCCC2(F)F)nc2ccc(C(F)(F)F)cn12 (stereo not drawn) [Compound 71, 2-(2,2-difluorocyclopentyl)-N-(3-neopentyl-6-(trifluoromethyl)imidazo[1,2-a]pyridin-2-yl)acetamide]"
2,< 0.5 µM,"O=C(Cc1ccc(F)cc1)Nc1nc2ccc(C(F)(F)F)cn2c1C1CCCCC1 [Compound 41, N-(3-cyclohexyl-6-(trifluoromethyl)imidazo[1,2-a]pyridin-2-yl)-2-(4-fluorophenyl)acetamide]"
3,3 to 10 µM,"CC(C)(C)CC(=O)Nc1nc2ccc(C(F)(F)F)cn2c1-c1nccs1 [Compound 82, 3,3-dimethyl-N-(3-(thiazol-2-yl)-6-(trifluoromethyl)imidazo[1,2-a]pyridin-2-yl)butanamide]"
4,< 0.5 µM,"CC(C)CCc1c(NC(=O)Cc2cccc(Cl)c2)nc2ccc(C(F)(F)F)cn12 [Compound 42, 2-(3-chlorophenyl)-N-(3-isopentyl-6-(trifluoromethyl)imidazo[1,2-a]pyridin-2-yl)acetamide]"
5,< 0.5 µM,"CCC(C)CC(=O)Nc1nc2ccc(C(F)(F)F)cn2c1CC(C)(C)C (stereo not drawn) [Compound 58, 3-methyl-N-(3-neopentyl-6-(trifluoromethyl)imidazo[1,2-a]pyridin-2-yl)pentanamide]"

# Same assay, conditions: FLIPR assay, SH-SY5Y native cell line; Table 2; read-out: SH-SY5Y EC50
row,Compound,EC50
1,"CC(C)C(C)C(=O)Nc1nc2ccc(F)cn2c1-c1ccc(C(F)(F)F)cc1 (stereo not drawn) [Compound 184, N-(6-fluoro-3-(4-(trifluoromethyl)phenyl)imidazo[1,2-a]pyridin-2-yl)-2,3-dimethylbutanamide]",0.5 to 3 µM
2,"O=C(CC1CC1)Nc1nc2ccc(F)cn2c1-c1ccc(F)cc1 [Compound 129, 2-cyclopropyl-N-(6-fluoro-3-(4-fluorophenyl)imidazo[1,2-a]pyridin-2-yl)acetamide]",3 to 10 µM
3,"O=C(CC1CC1)Nc1nc2ccc(F)cn2c1-c1ccc(OC(F)(F)F)cc1 [Compound 171, 2-cyclopropyl-N-(6-fluoro-3-(4-(trifluoromethoxy)phenyl)imidazo[1,2-a]pyridin-2-yl)acetamide]",0.5 to 3 µM
4,"O=C(Cc1ccc(F)cc1)Nc1nc2ccc(F)cn2c1-c1ccc(F)cc1 [Compound 102, N-(6-fluoro-3-(4-fluorophenyl)imidazo[1,2-a]pyridin-2-yl)-2-(4-fluorophenyl)acetamide]",< 0.5 µM
5,"CC(C)(C)CC(=O)Nc1nc2ccc(Br)cn2c1-c1ccc(F)cc1 [Compound 152, N-(6-bromo-3-(4-fluorophenyl)imidazo[1,2-a]pyridin-2-yl)-3,3-dimethyl butanamide]",< 0.5 µM
6,"CCC(C)CC(=O)Nc1nc2ccc(F)cn2c1-c1ccc(F)cc1 (stereo not drawn) [Compound 147, N-(6-fluoro-3-(4-fluorophenyl)imidazo[1,2-a]pyridin-2-yl)-3-methylpentanamide]",0.5 to 3 µM
7,"O=C(Nc1nc2ccc(F)cn2c1-c1ccc(OC(F)(F)F)cc1)C1CCOC1 (stereo not drawn) [Compound 248, N-(6-fluoro-3-(4-(trifluoromethoxy)phenyl)imidazo[1,2-a]pyridin-2-yl)tetrahydrofuran-3-carboxamide]",3 to 10 µM
8,"O=C(CC(F)(F)F)Nc1nc2ccc(F)cn2c1-c1ccc(OC(F)(F)F)cc1 [Compound 252, 3,3,3-trifluoro-N-(6-fluoro-3-(4-(trifluoromethoxy)phenyl)imidazo[1,2-a]pyridin-2-yl)propanamide]",< 0.5 µM
9,"O=C(CC1CCCC1)Nc1nc2ccccn2c1-c1ccc(F)cc1 [Compound 222, 2-cyclopentyl-N-(3-(4-fluorophenyl)imidazo[1,2-a]pyridin-2-yl)acetamide]",0.5 to 3 µM
10,"CC(C)(C)CC(=O)Nc1nc2ccc(Cl)cn2c1-c1ccc(F)cc1 [Compound 130, N-(6-chloro-3-(4-fluorophenyl)imidazo[1,2-a]pyridin-2-yl)-3,3-dimethylbutanamide]",< 0.5 µM
11,"O=C(Cc1ccc(F)cc1)Nc1nc2ccccn2c1-c1ccc(F)cc1 [Compound 203, 2-(4-fluorophenyl)-N-(3-(4-fluorophenyl)imidazo[1,2-a]pyridin-2-yl)acetamide]",0.5 to 3 µM
12,"O=C(Cc1ccccc1)Nc1nc2ccc(F)cn2c1-c1ccc(F)cc1F [Compound 115, N-(3-(2,4-difluorophenyl)-6-fluoroimidazo[1,2-a]pyridin-2-yl)-2-phenylacetamide]",0.5 to 3 µM
13,"O=C(Cc1ccc(F)c(F)c1)Nc1nc2ccc(F)cn2c1-c1ccc(OC(F)(F)F)cc1 [Compound 241, 2-(3,4-difluorophenyl)-N-(6-fluoro-3-(4-(trifluoromethoxy)phenyl)imidazo[1,2-a]pyridin-2-yl)acetamide]",< 0.5 µM
14,"CC(C)(C)CC(=O)Nc1nc2ccc(F)cn2c1-c1ccc(C#N)cc1 [Compound 177, N-(3-(4-cyanophenyl)-6-fluoroimidazo[1,2-a]pyridin-2-yl)-3,3-dimethylbutanamide]",0.5 to 3 µM
15,"CC(C)(C)CC(=O)Nc1nc2ccccn2c1-c1ccc(C(F)(F)F)cc1 [Compound 223, 3,3-dimethyl-N-(3-(4-(trifluoromethyl)phenyl)imidazo[1,2-a]pyridin-2-yl)butanamide]",< 0.5 µM

# Continued, values first:
row,EC50,Compound
1,0.5 to 3 µM,"CC(CC(=O)Nc1nc2ccccn2c1-c1cccc(OC(F)(F)F)c1)C(F)(F)F (stereo not drawn) [Compound 343, 4,4,4-trifluoro-3-methyl-N-(3-(3-(trifluoromethoxy)phenyl)imidazo[1,2-a]pyridin-2-yl)butanamide]"
2,< 0.5 µM,"O=C(CC1CCCC1)Nc1nc2ccc(F)cn2c1-c1ccc(OC(F)(F)F)c(F)c1 [Compound 311, 2-cyclopentyl-N-(6-fluoro-3-(3-fluoro-4-(trifluoromethoxy)phenyl)imidazo[1,2-a]pyridin-2-yl)acetamide]"
3,< 0.5 µM,"O=C(Cc1ccc(Cl)cc1)Nc1nc2ccc(F)cn2c1-c1cccc(Cl)c1 [Compound 301, 2-(4-chlorophenyl)-N-(3-(3-chlorophenyl)-6-fluoroimidazo[1,2-a]pyridin-2-yl)acetamide]"
4,0.5 to 3 µM,"O=C(CCC(F)(F)F)Nc1nc2ccc(F)cn2c1-c1cccc(C(F)(F)F)c1 [Compound 281, 4,4,4-trifluoro-N-(6-fluoro-3-(3-(trifluoromethyl)phenyl)imidazo[1,2-a]pyridin-2-yl)butanamide]"
5,< 0.5 µM,"Cc1cc(-c2c(NC(=O)CC(C)(C)C)nc3ccc(F)cn23)ccc1F [Compound 255, N-(6-fluoro-3-(4-fluoro-3-methylphenyl)imidazo[1,2-a]pyridin-2-yl)-3,3-dimethylbutanamide]"
6,0.5 to 3 µM,"O=C(Cc1ccc(C(F)(F)F)cc1)Nc1nc2ccc(F)cn2c1-c1cccc(Cl)c1 [Compound 299, N-(3-(3-chlorophenyl)-6-fluoroimidazo[1,2-a]pyridin-2-yl)-2-(4-(trifluoromethyl)phenyl)acetamide]"
7,< 0.5 µM,"O=C(CC1CCCC1)Nc1nc2ccc(F)cn2c1-c1cccc(OC(F)(F)F)c1 [Compound 264, 2-cyclopentyl-N-(6-fluoro-3-(3-(trifluoromethoxy)phenyl)imidazo[1,2-a]pyridin-2-yl)acetamide]"
8,0.5 to 3 µM,"O=C(CC(F)(F)F)Nc1nc2ccc(F)cn2c1-c1cccc(Cl)c1 [Compound 284, N-(3-(3-chlorophenyl)-6-fluoroimidazo[1,2-a]pyridin-2-yl)-3,3,3-trifluoropropanamide]"
9,0.5 to 3 µM,"O=C(Nc1nc2ccc(F)cn2c1-c1ccc(C(F)(F)F)cc1)N1CCC(F)(F)CC1 [Compound 345, 4,4-difluoro-N-(6-fluoro-3-(4-(trifluoromethyl)phenyl)imidazo[1,2-a]pyridin-2-yl)piperidine-1-carboxamide]"

# Same assay, conditions: FLIPR assay, SH-SY5Y native cell line; Table 4; read-out: SH-SY5Y EC50
row,EC50,Compound
1,< 0.5 µM,"Cc1cccc2nc(NC(=O)CC(C)(C)C)c(-c3cccc(C(F)(F)F)c3)n12 [Compound 419, 3,3-dimethyl-N-(5-methyl-3-(3-(trifluoromethyl)phenyl)imidazo[1,2-a]pyridin-2-yl)butanamide]"

# Same assay, conditions: SH-SY5Y native cell line, FLIPR assay (Table 3); read-out: SH-SY5Y EC50
row,EC50,Compound
1,0.5 to 3 µM,"COc1cccc(-c2c(NC(=O)CC(C)(C)C)nc3ccc(F)cn23)n1 [Compound 367, N-(6-fluoro-3-(6-methoxypyridin-2-yl)imidazo[1,2-a]pyridin-2-yl)-3,3-dimethylbutanamide]"
2,3 to 10 µM,"COc1ccc2nc(NC(=O)CC(C)(C)C)c(-c3nccs3)n2n1 [Compound 415, N-(6-methoxy-3-(thiazol-2-yl)imidazo[1,2-b]pyridazin-2-yl)-3,3-dimethylbutanamide]"
3,0.5 to 3 µM,"CC(C)(C)CC(=O)Nc1nc2ccc(F)cn2c1-c1ccc(C#N)nc1 [Compound 350, N-(3-(6-cyanopyridin-3-yl)-6-fluoroimidazo[1,2-a]pyridin-2-yl)-3,3-dimethylbutanamide]"
4,< 0.5 µM,"CC(C)(C)CC(=O)Nc1nc2ccc(F)cn2c1-c1cccc(C(F)(F)F)n1 [Compound 361, N-(6-fluoro-3-(6-(trifluoromethyl)pyridin-2-yl)imidazo[1,2-a]pyridin-2-yl)-3,3-dimethylbutanamide]"
5,0.5 to 3 µM,"O=C(CC1CCCC1)Nc1nc2ccc(F)cn2c1-c1nc2ccccc2s1 [Compound 380, N-(3-(benzo[d]thiazol-2-yl)-6-fluoroimidazo[1,2-a]pyridin-2-yl)-2-cyclopentylacetamide]"

# Same assay, conditions: unit inferred; read-out: SH-SY5Y_EC50
row,EC50,Compound
1,0.34 µM,"Cc1cccc2nc(NC(=O)CC(C)(C)C)c(-c3cccc(C(F)(F)F)c3)n12 [Compound 419, 3,3-dimethyl-N-(5-methyl-3-(3-(trifluoromethyl)phenyl)imidazo[1,2-a]pyridin-2-yl)butanamide]"

# — patent US9018208B2, “Heterocycles as potassium channel modulators” (Icagen Inc., priority 2007, dated 2015)
